Data from a compilation of properties of binary mixtures (doi:10.1021/je300384g).

Assay: xn = mol fraction of the nth substance listed
Details: 101 kPa

CCCC[N+]1(C)CCCC1.N#C[N-]C#N + CC(C)O
speed of sound [m/s]
Details | 298.15 K | 313.15 K | 328.15 K
x2 = 0 | 1810 | 1773 | 1736
x2 = 0.0466 | – | 1761 | 1724
x2 = 0.0896 | 1789 | – | 1713
x2 = 0.1849 | 1761 | 1723 | 1685
x2 = 0.2967 | 1723 | 1684 | 1646
x2 = 0.4039 | 1676 | 1637 | 1598
x2 = 0.5056 | 1622 | – | 1543
x2 = 0.6018 | 1559 | 1518 | 1478
x2 = 0.6997 | 1483 | 1440 | 1398
x2 = 0.8066 | 1382 | – | 1293
x2 = 0.892 | – | 1240 | –
x2 = 0.9461 | – | 1170 | 1120

CCCCO + CCCC[N+]1(C)CCCC1.N#C[N-]C#N
x1 = 1
Details | speed of sound [m/s]
298.15 K | 1240
313.15 K | 1190
328.15 K | 1140

CCCC[N+]1(C)CCCC1.N#C[N-]C#N + CCCCO
speed of sound [m/s]
Details | 298.15 K | 313.15 K | 328.15 K
x2 = 0 | – | – | 1736
x2 = 0.0464 | 1799 | 1761 | 1724
x2 = 0.0945 | 1787 | 1749 | 1712
x2 = 0.1898 | 1759 | 1720 | –
x2 = 0.299 | 1720 | 1680 | 1642
x2 = 0.4012 | 1674 | 1635 | 1596
x2 = 0.4989 | 1624 | 1583 | 1544
x2 = 0.5996 | 1564 | 1522 | –
x2 = 0.6947 | 1500 | 1457 | –
x2 = 0.7995 | 1420 | – | 1333
x2 = 0.8965 | 1339 | 1293 | 1247
x2 = 0.9464 | 1295 | 1246 | 1199

CCCC[N+]1(C)CCCC1.N#C[N-]C#N + CCCO
speed of sound [m/s]
Details | 298.15 K | 313.15 K | 328.15 K
x2 = 0 | 1810 | 1773 | –
x2 = 0.0669 | 1796 | 1758 | 1722
x2 = 0.1894 | 1766 | 1728 | 1690
x2 = 0.2912 | – | 1695 | 1657
x2 = 0.3998 | 1693 | – | 1615
x2 = 0.514 | – | 1598 | –
x2 = 0.597 | 1590 | 1549 | 1509
x2 = 0.6944 | 1523 | 1480 | –
x2 = 0.8002 | 1434 | – | 1346
x2 = 0.894 | 1339 | 1292 | 1247
x2 = 0.9437 | 1281 | 1233 | 1186

CCCO + CCCC[N+]1(C)CCCC1.N#C[N-]C#N
x1 = 1
Details | speed of sound [m/s]
298.15 K | 1206
313.15 K | 1155
328.15 K | 1105

CC(C)O + CCCC[N+]1(C)CCCC1.N#C[N-]C#N
x1 = 1
Details | speed of sound [m/s]
313.15 K | 1088
328.15 K | 1034
